Patent US12649751B2 (Arcus Biosciences, Inc., priority 2022, dated 2026)
Where two headings read alike, the source gives them in different places.

How the values were obtained:
HPK1 = HPK1 (Homo sapiens, UniProt Q92918); assay: HPK1 Biochemical Assay (ADP-Glo luminescence; low ATP 10 μM or high ATP 200 μM)
[1] = system: p-SLP-76 (Ser376) in Jurkat cells; assay: pSLP76 Cellular Assay (AlphaLISA SureFire Ultra p-SLP-76 (Ser376), anti-CD3 activated Jurkat cells); type: cell-based; conditions: Homo sapiens, read-out: Cellular Potency
Outline: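 Jurkat cells, serum-starved overnight in Opti-MEM then in HBSS, preincubated 1 h at 37 °C with 22-point 2-fold compound dilutions, then stimulated with anti-CD3 (0.025 mg/ml added solution) for 45 min. Lysate p-SLP-76 (Ser376) measured by AlphaLISA at 570 nm; IC50 from 4-parameter logistic fit.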

[2] = 2 nM HPK1, 10 μM ATP, read-out: Biochemical Potency (low ATP)
[3] = Jurkat cells, anti-CD3 stimulation, pSLP76
[4] = HPK1 ADP-Glo assay, high ATP (200 μM ATP, 5 nM HPK1), read-out: Biochemical Potency (high ATP)
[5] = pSLP76 (Ser376) AlphaLISA, anti-CD3 activated Jurkat cells
[6] = HPK1 ADP-Glo assay, low ATP (10 μM ATP, 2 nM HPK1), read-out: Biochemical Potency (low ATP)

Sequence of HPK1 (Q92918 whole entry, species assumed): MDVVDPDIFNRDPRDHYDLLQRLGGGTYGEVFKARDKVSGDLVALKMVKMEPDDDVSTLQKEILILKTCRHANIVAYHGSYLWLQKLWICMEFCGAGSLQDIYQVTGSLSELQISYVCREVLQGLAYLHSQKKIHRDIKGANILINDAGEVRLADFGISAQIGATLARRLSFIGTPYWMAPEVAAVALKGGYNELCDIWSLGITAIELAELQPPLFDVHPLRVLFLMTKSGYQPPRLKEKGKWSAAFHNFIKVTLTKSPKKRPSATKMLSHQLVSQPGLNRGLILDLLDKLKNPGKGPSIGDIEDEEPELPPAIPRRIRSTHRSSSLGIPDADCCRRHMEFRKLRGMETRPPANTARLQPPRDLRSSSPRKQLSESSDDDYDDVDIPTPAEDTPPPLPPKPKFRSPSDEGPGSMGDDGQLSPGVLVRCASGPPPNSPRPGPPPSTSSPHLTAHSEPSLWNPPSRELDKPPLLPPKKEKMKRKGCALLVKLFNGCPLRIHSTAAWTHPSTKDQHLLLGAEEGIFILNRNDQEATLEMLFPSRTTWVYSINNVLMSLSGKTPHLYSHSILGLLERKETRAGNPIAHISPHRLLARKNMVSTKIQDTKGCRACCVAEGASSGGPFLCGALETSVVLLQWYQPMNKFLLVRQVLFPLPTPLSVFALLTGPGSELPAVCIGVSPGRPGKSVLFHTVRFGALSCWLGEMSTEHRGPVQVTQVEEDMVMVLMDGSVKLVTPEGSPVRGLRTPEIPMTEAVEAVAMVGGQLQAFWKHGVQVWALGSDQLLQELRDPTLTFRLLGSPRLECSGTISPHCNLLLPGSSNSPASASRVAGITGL

Row | IC50 (HPK1; [2]) | IC50 [1, 3] | IC50 (HPK1; [4]) | IC50 [1, 5] | IC50 (HPK1; [6]) | SMILES
1 | < 100 nM | 100 to 1000 nM | – | – | – | Cc1ccncc1-c1nc2cc(Nc3cccc(N4C[C@@H]5C[C@H]4CN5C)n3)ncc2s1 [Example 139, 6-[(1S,4S)-5-Methyl-2,5-diazabicyclo[2.2.1]heptan-2-yl]-N-[2-(4-methylpyridin-3-yl)-[1,3]thiazolo[5,4-c]pyridin-6-yl]pyridin-2-amine]
2 | – | – | < 100 nM | < 100 nM | – | Cc1cc(Nc2cc3nc(-c4cnn(C)c4)sc3cn2)nc(N2C[C@@H]3C[C@H]2CN3CCO)n1 [Example 301, 2-[(1S,4S)-5-(4-Methyl-6-{[2-(1-methyl-1H-pyrazol-4-yl)-[1,3]thiazolo[5,4-c]pyridin-6-yl]amino}pyrimidin-2-yl)-2,5-diazabicyclo[2.2.1]heptan-2-yl]ethan-1-ol]
3 | – | – | < 100 nM | < 100 nM | – | CCN1C[C@@H]2C[C@H]1CN2c1nc(C)cc(Nc2cc3nc(-c4cccc(C(=O)N5CC[C@@H](C)C5)c4)sc3cn2)n1 [Example 305, [(R)-3-methyl-1-pyrrolidinyl]{m-[6-(2-{(1S,4S)-5-ethyl-2,5-diazabicyclo[2.2.1]hept-2-yl}-6-methyl-4-pyrimidinylamino)-3-thia-1,5-diaza-2-indenyl]phenyl}methanone]
4 | < 100 nM | 1000 to 5000 nM | – | – | – | C[C@H]1COCCN1c1nc2cc(Nc3ccc(C4CCOCC4)c(CN4CCCC4)n3)ncc2s1 [Example 235, N-{2-[(3S)-3-Methylmorpholin-4-yl]-[1,3]thiazolo[5,4-c]pyridin-6-yl}-5-(oxan-4-yl)-6-[(pyrrolidin-1-yl)methyl]pyridin-2-amine]
5 | – | – | < 100 nM | < 100 nM | < 100 nM | Cc1cccnc1-c1nc2cc(Nc3cnc(C4CCOCC4)c(N4C[C@@H]5C[C@H]4CN5)n3)ncc2s1 [Example 510]
6 | < 100 nM | 1000 to 5000 nM | – | – | – | Cc1cccnc1-c1nc2cc(Nc3cccc(N4CC5CCC4CN5C)n3)ncc2s1 (centres unmarked) [Example 97, 6-{5-Methyl-2,5-diazabicyclo[2.2.2]octan-2-yl}-N-[2-(3-methylpyridin-2-yl)-[1,3]thiazolo[5,4-c]pyridin-6-yl]pyridin-2-amine]
7 | – | – | < 100 nM | < 100 nM | < 100 nM | CS(=O)(=O)c1cccc(-c2nc3cc(Nc4cc(C5CCOCC5)nc(N5C[C@@H]6C[C@H]5CN6)n4)ncc3s2)c1 [Example 443]
8 | – | – | – | 5000 to 25000 nM | < 100 nM | Cc1c(N)cncc1-c1nc2cc(Nc3ccc4c(c3)CCC(N3CCCC3)CC4)ncc2s1 (centres unmarked) [Example 330]
9 | – | – | < 100 nM | 100 to 1000 nM | – | Cc1cc(Nc2cc3nc(-c4cnn(C(C)(C)C#N)c4)sc3cn2)nc(N2C[C@@H]3C[C@H]2CN3C)n1 [Example 371]
10 | < 100 nM | > 5000 nM | – | – | – | Cc1cccnc1-c1nc2cc(Nc3cccc(N4CCN5CCC[C@@H]5C4)n3)ncc2s1 [Example 114, 6-[(8aR)—Octahydropyrrolo[1,2-a]pyrazin-2-yl]-N-[2-(3-methylpyridin-2-yl)-[1,3]thiazolo[5,4-c]pyridin-6-yl]pyridin-2-amine]
11 | < 100 nM | < 100 nM | – | – | – | Cc1cccnc1-c1nc2cc(Nc3cnc(C)c(N4C[C@@H]5C[C@H]4CN5)n3)ncc2s1 [Example 148, 6-[(1S,4S)-2,5-Diazabicyclo[2.2.1]heptan-2-yl]-5-methyl-N-[2-(3-methylpyridin-2-yl)-[1,3]thiazolo[5,4-c]pyridin-6-yl]pyrazin-2-amine]
12 | < 100 nM | 100 to 1000 nM | – | – | – | Cc1c(-c2nc3cc(Nc4ccc(N5CCOCC5)c(CN5CCCC5)n4)ncc3s2)cnc2c1NCCO2 [Example 27, N-(2-{8-Methyl-1H,2H,3H-pyrido[2,3-b][1,4]oxazin-7-yl}-[1,3]thiazolo[5,4-c]pyridin-6-yl)-5-(morpholin-4-yl)-6-[(pyrrolidin-1-yl)methyl]pyridin-2-amine]
13 | < 100 nM | 100 to 1000 nM | – | – | – | Cc1cccnc1-c1nc2cc(Nc3cc(F)cc(N4C[C@@H]5C[C@H]4CN5C)n3)ncc2s1 [Example 119, 4-Fluoro-6-[(1S,4S)-5-methyl-2,5-diazabicyclo[2.2.1]heptan-2-yl]-N-[2-(3-methylpyridin-2-yl)-[1,3]thiazolo[5,4-c]pyridin-6-yl]pyridin-2-amine]
14 | – | – | < 100 nM | < 100 nM | – | Cc1cc(Nc2cc3nc(-c4cccc(C(=O)N(C)C5CCCC5)c4)sc3cn2)nc(N2C[C@@H]3C[C@H]2CN3CCO)n1 [Example 544]
15 | – | – | – | 100 to 1000 nM | < 100 nM | Cc1cccnc1-c1nc2cc(Nc3ccc4c(n3)[C@@H](N)CC4)ncc2s1 [Example 581]
16 | – | – | < 100 nM | < 100 nM | – | Cc1cc(Nc2cc3nc(-c4cnn(C5CC5)c4)sc3cn2)nc(N2C[C@@H]3C[C@H]2CN3CC2CC2)n1 [Example 364]
17 | < 100 nM | 100 to 1000 nM | – | – | – | Cc1cc(Nc2cc3nc(-c4ncccc4C)sc3cn2)nc(O[C@H]2CCNC2)c1 [Example 164, 4-Methyl-N-[2-(3-methylpyridin-2-yl)-[1,3]thiazolo[5,4-c]pyridin-6-yl]-6-[(3S)-pyrrolidin-3-yloxy]pyridin-2-amine]
18 | < 100 nM | 100 to 1000 nM | – | – | – | c1cncc(-c2nc3cc(Nc4ccc([C@H]5CCOC5)c(CN5CCCC5)n4)ncc3s2)c1 (single isomer, unassigned) [Example 260, 5-[(3R or 3S)—Oxolan-3-yl]-N-[2-(pyridin-3-yl)-[1,3]thiazolo[5,4-c]pyridin-6-yl]-6-[(pyrrolidin-1-yl)methyl]pyridin-2-amine]
19 | < 100 nM | 100 to 1000 nM | – | – | – | CN1C[C@@H]2C[C@H]1CN2c1nccc(Nc2cc3nc(-c4ccncc4)sc3cn2)n1 [Example 159, 2-[(1S,4S)-5-Methyl-2,5-diazabicyclo[2.2.1]heptan-2-yl]-N-[2-(pyridin-4-yl)-[1,3]thiazolo[5,4-c]pyridin-6-yl]pyrimidin-4-amine]
20 | – | – | < 100 nM | 100 to 1000 nM | – | CCN1C[C@@H]2C[C@H]1CN2c1nc(C)cc(Nc2cc3nc(-c4cccc(C(=O)Nc5ccccc5)c4)sc3cn2)n1 [Example 522]
21 | – | – | < 100 nM | < 100 nM | – | Cc1cc(Nc2cc3nc(-c4cccc5c4CCCN5)sc3cn2)nc(N2C[C@@H]3C[C@H]2CN3C)n1 [Example 313, 6-methyl-2-[(1S,4S)-5-methyl-2,5-diazabicyclo[2.2.1]heptan-2-yl]-N-[2-(1,2,3,4-tetrahydroquinolin-5-yl)-[1,3]thiazolo[5,4-c]pyridin-6-yl]pyrimidin-4-amine]

Row | SMILES | IC50 (HPK1; [2]) | IC50 [1, 3] | IC50 (HPK1; [4]) | IC50 [1, 5] | IC50 (HPK1; [6])
22 | Cc1cc(Nc2cc3nc(-c4ccnc(N5C6CCC5COC6)c4)sc3cn2)nc(N2C[C@@H]3C[C@H]2CN3CCO)n1 [Example 447] | – | – | < 100 nM | < 100 nM | –
23 | Cc1ccc(Nc2cc3nc(-c4ncccc4C)sc3cn2)nc1CN1CCCC1 [Example 41, 5-Methyl-N-[2-(3-methylpyridin-2-yl)-[1,3]thiazolo[5,4-c]pyridin-6-yl]-6-[(pyrrolidin-1-yl)methyl]pyridin-2-amine] | < 100 nM | 1000 to 5000 nM | – | – | –
24 | Cc1cccnc1-c1nc2cc(Nc3cccc(N4C[C@@H]5C[C@H]4CN5C(C)C)n3)ncc2s1 [Example 116, N-[2-(3-Methylpyridin-2-yl)-[1,3]thiazolo[5,4-c]pyridin-6-yl]-6-[(1S,4S)-5-(propan-2-yl)-2,5-diazabicyclo[2.2.1]heptan-2-yl]pyridin-2-amine] | < 100 nM | 1000 to 5000 nM | – | – | –
